Reference: paper PMC11257039, “VCP activator reverses nuclear proteostasis defects and enhances TDP-43 aggregate clearance in multisystem proteinopathy models” (The Journal of Clinical Investigation, 2024)
Values joined by “and” are separate entries in the source; they are usually repeats but may differ in a detail not shown here. Equal values may be shown once.

What was measured:
[1] = target: T1, recombinant WT VCP (Mus musculus, UniProt Q01853); experiment: MESG-PNP (EnzCheck) phosphate release ATPase assay, WT VCP; assay type: biochemical; settings: for ATPase activity v0/ET: 25 μM compound, replicate experiments
T1 construct: in the full-length recombinant VCP; His (N); made in house; host or cells: Escherichia coli BL21-CodonPlus (DE3)-RIL
Outline: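 50 nM mouse WT VCP with 25 μM compound, 2% DMSO and varied ATP at 25°C; phosphate release followed by MESG-PNP absorbance at 360 nm for over 15 min against a phosphate standard curve. Initial rates from the linear portion, fitted to a 3-parameter dose curve or to Michaelis-Menten.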

[2] = target: T2, WT VCP + Ufd1/Nploc4 (Mus musculus, UniProt Q01853); experiment: Kinase-Glo ATPase assay, WT VCP with UFD1/NPLOC4 (UN); assay type: biochemical; settings: for ATP consumed: WT VCP with UN
T2 construct: in the full-length recombinant VCP; His (N); made in house; host or cells: E. coli (VCP: BL21-CodonPlus (DE3)-RIL; UFD1 and NPLOC4: E. coli (DE3), purified by the MD Anderson core)
Outline: (§1)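 Mouse VCP (50 nM), alone or with 50 nM UFD1/NPLOC4, was incubated 1 h at 25 °C with 62.5 μM ATP and a range of compound concentrations in HEPES pH 7.5, 100 mM NaCl, 10 mM MgCl2, 2% DMSO. Remaining ATP was read by Kinase-Glo luminescence. Dose data were fit to a 3-parameter curve; ATP-varied data were fit to Michaelis-Menten.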

[3] = test system: luciferase; experiment: Luciferase counter assay: Kinase-Glo with 62.5 μM ATP without recombinant VCP; assay type: biochemical; settings: for measured ATP consumed (nmol) without VCP: replicate values
Outline: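 Counter-screen with no recombinant VCP: 62.5 μM ATP and rising compound concentrations in ATPase buffer (25 mM HEPES pH 7.5, 100 mM NaCl, 10 mM MgCl2, 2% DMSO), 1 h at 25°C. Remaining ATP was read as Kinase-Glo luminescence after 20 min at room temperature; n=3, linear mixed effects model.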

[4] = test system: WT HeLa cells expressing TDP-4FL; experiment: Immunofluorescence of TDP-4FL inclusion morphology, WT HeLa; assay type: cell-based; settings: MG132 17 h, then CHX with 5 μM UP109 4 h
Protocol: HeLa Cells were plated onto glass coverslips and transfected with TDP-4FL using Fugene HD for 24 hours. Cells were fixed with 4% paraformaldehyde (Electron Microscopy Sciences), permeabilized with 0.1% Triton-X (Thermo Fisher Scientific), and blocked with 2% FBS DPBS. Primary antibodies were diluted in 2% FBS DPBS. Cells were stained with 300 nM DAPI, and coverslips were mounted onto glass slides using ProLong Glass Antifade Mountant (Thermo Fisher Scientific). Confocal images were obtained using a Leica TCS SPE laser scanning confocal microscope.
(A) High power magnification immunofluorescence confocal images of HeLa cells expressing TDP-4FL stained for myc-TDP (green) Scale bar, 5 µm. […]
(C) Representative confocal microscopy immunofluorescence confocal images of HeLa cells […]
yellow represent cells that were categorized as anisosome morphology. Nuclei outline in white represent cells that were categorized as aggregate morphology. Cells with approximately more than 50% anisosome inclusions were categorized as anisosome morphology whereas cells with approximately more than 50% aggregate-like inclusions were categorized as aggregate morphology. Binucleate cells were excluded from the total counts. Scale bar, 10 µm.
(1 picture or pasted object on this page, not shown here)

[5] = target: T1, recombinant WT VCP; experiment: Kinase-Glo ATPase assay, recombinant WT VCP; assay type: biochemical; settings: for ATP consumed: WT VCP no UN
Outline: as §1

[6] = target: T3, A232E VCP (Mus musculus, UniProt Q01853, A232E); experiment: MESG-PNP ATPase assay, recombinant A232E VCP; assay type: biochemical
T3 construct: in the full-length recombinant VCP; His (N); made in house; host or cells: Escherichia coli BL21-CodonPlus (DE3)-RIL
Outline: (§2)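 Phosphate release (MESG-PNP, A360) from 50 nM recombinant mouse VCP mutant, with 25 μM compound versus 2% DMSO, at 1mM ATP. Read >15 min at 25°C, quantified against a phosphate standard curve; initial velocity from linear fit of the linear portion.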

[7] = target: T4, R159H VCP (Mus musculus, UniProt Q01853, R159H); experiment: MESG-PNP ATPase assay, recombinant R159H VCP; assay type: biochemical
T4 construct: in the full-length recombinant VCP; His (N); made in house; host or cells: Escherichia coli BL21-CodonPlus (DE3)-RIL
Outline: as §2

[8] = 25 μM compound, 1 mM ATP, 50 nM VCP

T3 sequence (Q01853 whole entry A232E): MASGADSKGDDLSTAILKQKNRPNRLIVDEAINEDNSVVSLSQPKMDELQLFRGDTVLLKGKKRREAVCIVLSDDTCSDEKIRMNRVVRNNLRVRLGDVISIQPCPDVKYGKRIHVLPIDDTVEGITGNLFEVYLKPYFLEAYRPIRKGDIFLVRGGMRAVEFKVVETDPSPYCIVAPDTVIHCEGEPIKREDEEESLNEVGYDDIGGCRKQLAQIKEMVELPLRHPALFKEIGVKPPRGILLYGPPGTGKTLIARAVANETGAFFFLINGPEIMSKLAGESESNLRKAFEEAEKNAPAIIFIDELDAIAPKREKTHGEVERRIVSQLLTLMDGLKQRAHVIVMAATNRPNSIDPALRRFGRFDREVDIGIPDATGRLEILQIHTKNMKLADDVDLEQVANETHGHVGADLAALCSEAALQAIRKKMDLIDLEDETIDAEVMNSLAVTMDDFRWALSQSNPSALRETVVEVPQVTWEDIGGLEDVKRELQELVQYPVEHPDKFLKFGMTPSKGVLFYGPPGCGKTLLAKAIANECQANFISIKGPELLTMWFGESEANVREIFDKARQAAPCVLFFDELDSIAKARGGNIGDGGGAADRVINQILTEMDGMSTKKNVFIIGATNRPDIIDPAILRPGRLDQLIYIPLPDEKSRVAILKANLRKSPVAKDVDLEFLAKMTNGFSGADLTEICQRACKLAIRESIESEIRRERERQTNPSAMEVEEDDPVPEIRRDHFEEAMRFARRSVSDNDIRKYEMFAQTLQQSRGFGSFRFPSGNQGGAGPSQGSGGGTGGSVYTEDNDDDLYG
T4 sequence (Q01853 whole entry R159H): as the sequence (Q01853 whole entry A232E) above, with R159H, E232A counted along it
T2 sequence (Q01853 whole entry): as the sequence (Q01853 whole entry A232E) above, with E232A counted along it
T2 sequence (Q92890 whole entry partner): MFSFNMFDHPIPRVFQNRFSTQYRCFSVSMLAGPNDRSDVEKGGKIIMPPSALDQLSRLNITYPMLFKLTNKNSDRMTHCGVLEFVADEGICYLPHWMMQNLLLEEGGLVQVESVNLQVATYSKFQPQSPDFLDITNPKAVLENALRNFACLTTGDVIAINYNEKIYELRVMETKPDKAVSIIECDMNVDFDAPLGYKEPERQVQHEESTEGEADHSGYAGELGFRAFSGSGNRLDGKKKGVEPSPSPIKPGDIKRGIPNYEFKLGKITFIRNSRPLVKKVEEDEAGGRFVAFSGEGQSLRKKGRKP
T2 sequence (Q8TAT6 whole entry partner): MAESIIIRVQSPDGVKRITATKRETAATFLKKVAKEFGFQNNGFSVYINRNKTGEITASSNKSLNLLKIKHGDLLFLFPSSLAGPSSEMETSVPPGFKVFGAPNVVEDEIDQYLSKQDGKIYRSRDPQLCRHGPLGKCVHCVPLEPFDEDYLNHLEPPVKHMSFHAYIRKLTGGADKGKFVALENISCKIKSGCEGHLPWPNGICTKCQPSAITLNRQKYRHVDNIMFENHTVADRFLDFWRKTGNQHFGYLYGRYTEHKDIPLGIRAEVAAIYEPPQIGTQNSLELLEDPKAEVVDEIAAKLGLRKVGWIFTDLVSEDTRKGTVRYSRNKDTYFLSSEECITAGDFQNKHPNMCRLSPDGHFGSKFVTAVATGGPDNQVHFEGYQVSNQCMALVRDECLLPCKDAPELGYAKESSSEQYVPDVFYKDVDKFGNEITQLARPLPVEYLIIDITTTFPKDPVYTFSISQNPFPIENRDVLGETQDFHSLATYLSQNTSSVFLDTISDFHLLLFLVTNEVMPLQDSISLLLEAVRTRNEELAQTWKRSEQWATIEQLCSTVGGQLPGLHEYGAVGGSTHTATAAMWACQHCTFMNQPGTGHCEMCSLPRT
T1 sequence (Q01853 whole entry): as the sequence (Q01853 whole entry A232E) above, with E232A counted along it

## COCCNC(=O)NC(=O)COC(=O)c1cc([N+](=O)[O-])ccc1Sc1nc(C)cs1 [UP109]
[1]; 25 μM activator
  decrease in KM compared with DMSO: more than 2 fold
  kcat (nmol Pi / nmol VCP / s) (95% CI): 0.489 (0.459, 0.520) nmol Pi / nmol VCP / s
[1]; 25 μM activator, versus DMSO
  increase in catalytic efficiency (kcat/KM): > 4 fold
  increase in kcat: 100%
[1]; [ATP] 62.5 μM
  ATPase activity v0/ET: 0.302 nmol Pi / nmol VCP / s and 0.325 nmol Pi / nmol VCP / s and 0.308 nmol Pi / nmol VCP / s
[1]; [ATP] 125 μM
  ATPase activity v0/ET: 0.374 nmol Pi / nmol VCP / s and 0.402 nmol Pi / nmol VCP / s and 0.380 nmol Pi / nmol VCP / s
[1]; [ATP] 250 μM
  ATPase activity v0/ET: 0.403 nmol Pi / nmol VCP / s and 0.414 nmol Pi / nmol VCP / s and 0.420 nmol Pi / nmol VCP / s
[1]; [ATP] 500 μM
  ATPase activity v0/ET: 0.423 nmol Pi / nmol VCP / s and 0.468 nmol Pi / nmol VCP / s and 0.467 nmol Pi / nmol VCP / s
[1]; [ATP] 1000 μM
  ATPase activity v0/ET: 0.455 nmol Pi / nmol VCP / s and 0.493 nmol Pi / nmol VCP / s and 0.498 nmol Pi / nmol VCP / s
[2]
  change in EC50 with UN compared to without UN: non-significant decreases
  change in maximum percent activity with UN compared to without UN: significantly decreased
[2]; WT VCP + Ufd1/Nploc4, 1:1 molar ratio
  EC50: 13.4 µM
[2]; 1.56 μM compound
  ATP consumed: 1.207 nmol and 1.374 nmol and 1.037 nmol
[2]; 3.13 μM compound
  ATP consumed: 1.252 nmol and 1.505 nmol and 1.198 nmol
[2]; 6.25 μM compound
  ATP consumed: 1.448 nmol and 1.727 nmol and 1.392 nmol
[2]; 12.5 μM compound
  ATP consumed: 1.655 nmol and 1.932 nmol and 1.557 nmol
[2]; 25 μM compound
  ATP consumed: 1.893 nmol and 2.050 nmol and 1.818 nmol
[2]; 50 μM compound
  ATP consumed: 2.078 nmol and 2.217 nmol and 1.927 nmol
[2]; 100 μM compound
  ATP consumed: 2.107 nmol and 2.355 nmol and 2.018 nmol
[2]; 200 μM compound
  ATP consumed: 1.978 nmol and 2.301 nmol and 2.081 nmol
[3]; 62.5 μM ATP, increasing concentrations of compound
  luciferase activity (measured ATP without VCP): did not inhibit luciferase activity
[3]; compound 6.25 μM
  measured ATP consumed (nmol) without VCP: 3.224 nmol and 3.481 nmol and 3.557 nmol and 3.618 nmol and 3.348 nmol and 3.306 nmol and 3.280 nmol and 3.059 nmol and 3.211 nmol and 3.590 nmol and 3.249 nmol and 3.229 nmol
[3]; compound 12.5 μM
  measured ATP consumed (nmol) without VCP: 3.275 nmol and 3.593 nmol and 3.611 nmol and 3.469 nmol and 3.221 nmol and 3.387 nmol and 3.414 nmol and 3.086 nmol and 3.141 nmol and 3.174 nmol and 3.231 nmol and 3.422 nmol
[3]; compound 25 μM
  measured ATP consumed (nmol) without VCP: 3.285 nmol and 3.476 nmol and 3.450 nmol and 3.355 nmol and 3.220 nmol and 3.354 nmol and 3.314 nmol and 3.030 nmol and 3.217 nmol and 3.388 nmol and 3.578 nmol and 3.396 nmol
[3]; compound 50 μM
  measured ATP consumed (nmol) without VCP: 3.335 nmol and 3.348 nmol and 3.307 nmol and 3.386 nmol and 3.228 nmol and 2.949 nmol and 3.054 nmol and 3.211 nmol and 3.367 nmol and 3.287 nmol and 3.322 nmol
[3]; compound 100 μM
  measured ATP consumed (nmol) without VCP: 3.258 nmol and 3.303 nmol and 3.325 nmol and 3.212 nmol and 3.287 nmol and 3.191 nmol and 3.396 nmol and 3.257 nmol and 3.381 nmol and 3.296 nmol
[3]; compound 200 μM
  measured ATP consumed (nmol) without VCP: 3.338 nmol and 3.532 nmol and 3.360 nmol and 3.185 nmol and 3.242 nmol and 2.772 nmol and 3.166 nmol and 3.261 nmol and 3.507 nmol and 3.171 nmol and 3.672 nmol
[4]
  TDP-4FL aggregate morphology: appeared to be smaller and in some cases revert to small anisosomes
[5]; EC50 (μM) (95% CI), WT VCP without UN, 50 nM VCP, 62.5 μM ATP, 2% DMSO
  EC50: 24.7 µM
[5]; 1.56 μM compound
  ATP consumed: 0.864 nmol and 1.057 nmol and 1.000 nmol
[5]; 3.13 μM compound
  ATP consumed: 1.129 nmol and 1.166 nmol and 1.237 nmol
[5]; 6.25 μM compound
  ATP consumed: 1.129 nmol and 1.374 nmol and 1.469 nmol
[5]; 12.5 μM compound
  ATP consumed: 1.453 nmol and 1.583 nmol and 1.518 nmol
[5]; 25 μM compound
  ATP consumed: 1.644 nmol and 1.860 nmol and 1.582 nmol
[5]; 50 μM compound
  ATP consumed: 1.793 nmol and 1.914 nmol and 2.036 nmol
[5]; 100 μM compound
  ATP consumed: 1.926 nmol and 2.030 nmol and 2.160 nmol
[5]; 200 μM compound
  ATP consumed: 2.051 nmol and 2.217 nmol and 2.241 nmol
[5]; in vitro validation of 106 screen hits
  recombinant WT VCP ATPase activity: significantly increased
[5]; maximum, WT VCP without UN
  increase of VCP activity: 97%
[6]; [8]
  ATPase activity of A232E VCP: increases ATPase activity
[6]; VCP Mutation A232E, replicate values
  ATPase activity, nmol Pi / nmol VCP / s: 1.176 nmol Pi / nmol VCP / s and 1.282 nmol Pi / nmol VCP / s and 1.456 nmol Pi / nmol VCP / s
[7]; [8]
  ATPase activity of R159H VCP: increases ATPase activity
[7]; VCP Mutation R159H, replicate values
  ATPase activity, nmol Pi / nmol VCP / s: 1.124 nmol Pi / nmol VCP / s and 1.212 nmol Pi / nmol VCP / s and 1.056 nmol Pi / nmol VCP / s
